# Reference: ChEMBL document CHEMBL6177951, “Synthesis and anti-MRSA activity of quaternized small molecule antimicrobial peptide mimics based on norharmane” (Eur J Med Chem, 2025)
# Calls of active or inactive are those of the source. No cut-off for these calls is given here.
# What was measured:
# Staphylococcus aureus [1] = experiment: Antibacterial activity against Staphylococcus aureus ATCC 25923 assessed as inhibition of bacterial growth incubated for 14 hrs by two-fold serial dilution method; type: functional
# Staphylococcus aureus [2] = experiment: Antibacterial activity against Staphylococcus aureus ATCC 29213 assessed as inhibition of bacterial growth incubated for 14 hrs by two-fold serial dilution method; type: functional
# Staphylococcus aureus [3] = experiment: Antibacterial activity against Staphylococcus aureus CMCC 26003 assessed as inhibition of bacterial growth incubated for 14 hrs by two-fold serial dilution method; type: functional
# Staphylococcus aureus [4] = experiment: Antibacterial activity against methicillin-resistant Staphylococcus aureus ATCC 43300 assessed as inhibition of bacterial growth incubated for 14 hrs by two-fold serial dilution method; type: functional
# Staphylococcus aureus [5] = experiment: Antibacterial activity against methicillin-resistant Staphylococcus aureus ATCC 33591 assessed as inhibition of bacterial growth incubated for 14 hrs by two-fold serial dilution method; type: functional
# Staphylococcus aureus [6] = experiment: Antibacterial activity against Staphylococcus aureus ATCC 33591 assessed as resistance development by measuring fold increase in MIC at 0.5 times MIC incubated for 8 hrs and measured after 15 passages; type: functional
# Staphylococcus aureus [7] = experiment: Antibacterial activity against methicillin-resistant Staphylococcus aureus clinical isolate M-13 incubated for 14 hrs by two-fold serial dilution method; type: functional
# Staphylococcus aureus [8] = experiment: Antibacterial activity against methicillin-resistant Staphylococcus aureus clinical isolate M-14 incubated for 14 hrs by two-fold serial dilution method; type: functional
# Staphylococcus aureus [9] = experiment: Antibacterial activity against methicillin-resistant Staphylococcus aureus clinical isolate M-15 incubated for 14 hrs by two-fold serial dilution method; type: functional
# Staphylococcus aureus [10] = experiment: Antibacterial activity against methicillin-resistant Staphylococcus aureus clinical isolate M-16 incubated for 14 hrs by two-fold serial dilution method; type: functional
# Staphylococcus aureus [11] = experiment: Antibacterial activity against methicillin-resistant Staphylococcus aureus clinical isolate M-17 incubated for 14 hrs by two-fold serial dilution method; type: functional
# Staphylococcus aureus [12] = experiment: Antibacterial activity against methicillin-resistant Staphylococcus aureus clinical isolate M-18 incubated for 14 hrs by two-fold serial dilution method; type: functional
# Staphylococcus aureus [13] = experiment: Antibacterial activity against methicillin-resistant Staphylococcus aureus clinical isolate M-19 incubated for 14 hrs by two-fold serial dilution method; type: functional
# Staphylococcus aureus [14] = experiment: Antibacterial activity against methicillin-resistant Staphylococcus aureus clinical isolate M-20 incubated for 14 hrs by two-fold serial dilution method; type: functional
# Staphylococcus aureus [15] = experiment: Antibacterial activity against methicillin-resistant Staphylococcus aureus clinical isolate M-21 incubated for 14 hrs by two-fold serial dilution method; type: functional
# Staphylococcus aureus [16] = experiment: Antibacterial activity against methicillin-resistant Staphylococcus aureus clinical isolate M-22 incubated for 14 hrs by two-fold serial dilution method; type: functional
# Staphylococcus aureus [17] = experiment: Antibacterial activity against methicillin-resistant Staphylococcus aureus clinical isolate M-23 incubated for 14 hrs by two-fold serial dilution method; type: functional
# Staphylococcus aureus [18] = experiment: Antibacterial activity against Staphylococcus aureus ATCC 33591 assessed as log reduction in bacterial growth at 1 times MIC measured at 6 hrs by time-kill kinetic assay; type: functional
# Staphylococcus aureus [19] = experiment: In vivo antibacterial activity against methicillin-resistant Staphylococcus aureus infected in female Kunming mouse skin infection model assessed as log reduction in bacterial load at 5 mg/kg measured after 48 hrs (reference value: 14.34 log10CFU/g); type: functional
# Staphylococcus aureus [20] = experiment: In vivo antibacterial activity against methicillin-resistant Staphylococcus aureus infected in female Kunming mouse skin infection model assessed as recovery of dorsal surface at 5 to 20 mg/kg measured after 48 hrs; type: functional, organism-based; conditions: dose 5-20 mg/kg
# Staphylococcus aureus [21] = experiment: In vivo antibacterial activity against methicillin-resistant Staphylococcus aureus infected in female Kunming mouse skin infection model assessed as reduction in inflammatory cells at 5 to 20 mg/kg measured after 48 hrs by H and E staining based analysis; type: functional, organism-based; conditions: dose 5-20 mg/kg
SMILES,MIC (Staphylococcus aureus [1]) [µg/mL],MIC (Staphylococcus aureus [2]) [µg/mL],MIC (Staphylococcus aureus [3]) [µg/mL],MIC (Staphylococcus aureus [4]) [µg/mL],MIC (Staphylococcus aureus [5]) [µg/mL],further results
C[n+]1ccc2c3ccccc3n(CC[N+](C)(C)C)c2c1.[I-].[I-],128,> 128,> 128,> 128,> 128,–
c1ccc2c(c1)c1ccncc1n2CCCCCCCCCCn1c2ccccc2c2ccncc21,> 128,> 128,> 128,> 128,> 128,–
CCn1cc(C(=O)O)c(=O)c2cc(F)c(N3CCNCC3)cc21 [NORFLOXACIN],–,–,–,–,–,fold change (FC) (Staphylococcus aureus [6]): 16
CC[n+]1ccc2c3ccccc3n(CC[N+](C)(C)CC)c2c1.[Br-].[Br-],128,> 128,> 128,> 128,> 128,–
CCCCC[n+]1ccc2c3ccccc3n(CCN(CC)CC)c2c1.[Br-],8,128,16,32,32,–
C[n+]1ccc2c3ccccc3n(CCCCCCCCCCn3c4ccccc4c4cc[n+](C)cc43)c2c1.[I-].[I-],2,1,0.5,2,0.5,MIC (Staphylococcus aureus [7]): 1 µg/mL; MIC (Staphylococcus aureus [8]): 1 µg/mL; MIC (Staphylococcus aureus [9]): 2 µg/mL; MIC (Staphylococcus aureus [10]): 1 µg/mL; MIC (Staphylococcus aureus [11]): 2 µg/mL; MIC (Staphylococcus aureus [12]): 2 µg/mL; MIC (Staphylococcus aureus [13]): 2 µg/mL; MIC (Staphylococcus aureus [14]): 1 µg/mL; MIC (Staphylococcus aureus [15]): 2 µg/mL; MIC (Staphylococcus aureus [16]): 1 µg/mL; MIC (Staphylococcus aureus [17]): 2 µg/mL
C[n+]1ccc2c3ccccc3n(CCCCCCCCCn3c4ccccc4c4cc[n+](C)cc43)c2c1.[I-].[I-],4,2,0.5,4,0.5,MIC (Staphylococcus aureus [7]): 1 µg/mL; MIC (Staphylococcus aureus [8]): 1 µg/mL; MIC (Staphylococcus aureus [9]): 4 µg/mL; MIC (Staphylococcus aureus [10]): 2 µg/mL; MIC (Staphylococcus aureus [11]): 4 µg/mL; MIC (Staphylococcus aureus [12]): 4 µg/mL; MIC (Staphylococcus aureus [13]): 4 µg/mL; MIC (Staphylococcus aureus [14]): 2 µg/mL; MIC (Staphylococcus aureus [15]): 4 µg/mL; MIC (Staphylococcus aureus [16]): 2 µg/mL; MIC (Staphylococcus aureus [17]): 4 µg/mL
c1ccc2c3c([nH]c2c1)CNCC3 [TRYPTOLINE],128,> 128,128,128,128,–
CCCC[n+]1ccc2c3ccccc3n(CCN(CC)CC)c2c1.[Br-],16,128,16,64,64,–
CCC[n+]1ccc2c3ccccc3n(CCN(CC)CC)c2c1.[Br-],32,> 128,32,128,128,–
c1ccc2c(c1)[nH]c1cnccc12 [NORHARMANE],32,64,64,64,64,–
c1ccc2c(c1)c1ccncc1n2CCCCCCCCCCCn1c2ccccc2c2ccncc21,> 128,> 128,> 128,> 128,> 128,–
CC[N+](C)(CC)CCn1c2ccccc2c2cc[n+](C)cc21.[I-].[I-],128,> 128,> 128,> 128,> 128,–
CCN(CC)CCn1c2ccccc2c2ccncc21,64,128,128,128,128,–
CC[n+]1ccc2c3ccccc3n(CC[N+](CC)(CC)CC)c2c1.[Br-].[Br-],128,> 128,> 128,> 128,> 128,–
c1ccc2c(c1)c1ccncc1n2CCCCCCCCCCCCn1c2ccccc2c2ccncc21,> 128,> 128,> 128,> 128,> 128,–
CN(C)CCn1c2ccccc2c2ccncc21,64,64,> 128,> 128,128,–
CCCCC[n+]1ccc2c3ccccc3n(CC[N+](C)(C)CCCCC)c2c1.[Br-].[Br-],128,> 128,> 128,> 128,> 128,–
C[n+]1ccc2c3ccccc3n(CCCCCCCCCCCCn3c4ccccc4c4cc[n+](C)cc43)c2c1.[I-].[I-],1,0.5,0.5,1,0.5,MIC (Staphylococcus aureus [7]): 1 µg/mL; MIC (Staphylococcus aureus [8]): 1 µg/mL; MIC (Staphylococcus aureus [9]): 1 µg/mL; MIC (Staphylococcus aureus [10]): 1 µg/mL; MIC (Staphylococcus aureus [11]): 1 µg/mL; MIC (Staphylococcus aureus [12]): 1 µg/mL; MIC (Staphylococcus aureus [13]): 1 µg/mL; MIC (Staphylococcus aureus [14]): 1 µg/mL; MIC (Staphylococcus aureus [15]): 1 µg/mL; MIC (Staphylococcus aureus [16]): 1 µg/mL; MIC (Staphylococcus aureus [17]): 1 µg/mL
CCN(CC)CCn1c2ccccc2c2cc[n+](CC)cc21.[Br-],32,> 128,32,> 128,128,–
CCC[n+]1ccc2c3ccccc3n(CC[N+](C)(C)CCC)c2c1.[Br-].[Br-],64,> 128,> 128,> 128,> 128,–
CN[C@H](CC(C)C)C(=O)N[C@H]1C(=O)N[C@@H](CC(N)=O)C(=O)N[C@H]2C(=O)N[C@H]3C(=O)N[C@H](C(=O)N[C@H](C(=O)O)c4cc(O)cc(O)c4-c4cc3ccc4O)[C@H](O)c3ccc(c(Cl)c3)Oc3cc2cc(c3O[C@@H]2O[C@H](CO)[C@@H](O)[C@H](O)[C@H]2O[C@H]2C[C@](C)(N)[C@H](O)[C@H](C)O2)Oc2ccc(cc2Cl)[C@H]1O [VANCOMYCIN],–,–,–,–,–,Activity (Staphylococcus aureus [18]): 2.74 log10CFU/ml; Activity (Staphylococcus aureus [19]): 4.99 log10CFU/g; Activity (Staphylococcus aureus [20]): Active; Activity (Staphylococcus aureus [21]): Active
CCCC[n+]1ccc2c3ccccc3n(CC[N+](C)(C)CCCC)c2c1.[Br-].[Br-],128,> 128,> 128,> 128,128,–
c1ccc2c(c1)c1ccncc1n2CCCCCCCCCn1c2ccccc2c2ccncc21,> 128,> 128,> 128,> 128,> 128,–
